The subject of assay [1] is mTA1. The following applies: cited from earlier work.
In a further assay the test system is rTA1. To be noted: cited from earlier work.
Assay [2] concerns the target T1, hTA1 (Homo sapiens, UniProt Q96RJ0).
T1 construct: expressed in transfected cells; host or cells: HEK293T
T1 sequence (Q96RJ0 1-339): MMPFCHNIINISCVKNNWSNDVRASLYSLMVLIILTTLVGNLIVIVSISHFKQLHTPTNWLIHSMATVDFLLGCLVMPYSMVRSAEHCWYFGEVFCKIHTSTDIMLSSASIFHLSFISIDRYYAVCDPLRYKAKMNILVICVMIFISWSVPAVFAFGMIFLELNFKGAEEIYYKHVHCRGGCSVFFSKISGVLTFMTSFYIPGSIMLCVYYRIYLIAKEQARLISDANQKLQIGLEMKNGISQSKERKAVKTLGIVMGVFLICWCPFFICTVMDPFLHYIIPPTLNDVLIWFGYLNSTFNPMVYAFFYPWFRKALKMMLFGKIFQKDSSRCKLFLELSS
The following applies: antagonist; cited from earlier work.

In assay [3] the target is T1, hTA1. Description: GloSensor cAMP accumulation assay, concentration response, wild-type hTA1 in transfected HEK293T cells.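 Note: luminescence read after 30 min compound exposure at room temperature in cells preloaded with D-Luciferin, reflecting Gs-driven cAMP rise, efficacy scaled to the maximal β-PEA response.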 The format is cell-based. The following applies: log[Compound], replicate wells. (cAMP levels reflect the balance of adenylyl cyclase and phosphodiesterase activity.)
The target of assay [4] is T1, hTA1. The experiment in a line: Screen of 89 aminergic compounds at 10 µM, cAMP accumulation in HEK293T cells.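 Note: HEK293T cells co-transfected with hTA1 and GloSensor cAMP reporter, cAMP accumulation detected by luminescence.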 The format is cell-based. The following applies: 10 µM of compound; HEK293T; threshold log2-fold change of 2.
For the next assay, the system named is DRD4 S^5.43A. To be noted: S^5.43A mutation in DRD4; cited from earlier work.
Assay [5] deals with T1, hTA1. The following applies: cited from earlier work.
Assay [6] has as its target mTA1. The following applies: read-out: affinity; cited from earlier work.

Each structure is given as a SMILES string. Values joined by “and” are separate entries in the source; they are usually repeats but may differ in a detail not shown here. Equal values may be shown once.

Here are results for nine compounds from PMC10762035, “Molecular basis of human trace amine-associated receptor 1 activation” (Nature Communications, 2024).

`N#Cc1c(C(F)(F)F)cc(-c2ccc(Cl)cc2)nc1SCC(=O)Nc1ncccn1` [RTI-7470-44]: the “reduced potency relative to hTA1” value is ~ 140 fold in the assay on mTA1 [1] and ~ 90 fold with rTA1 (rTA1). In addition, the half-inhibitory concentration (IC50) on hTA1 [2] is approximately 8 nM.

Turning to `C[C@H]1CNCCc2ccc(Cl)cc21` [lorcaserin], the “Normalized Luminescence Counts for WT hTA1” value is 36.902 and 34.0112 and 1.008 and 64.4771 and 65.1158 and 60.8849 on hTA1 [3] (M = -5); 12.6245 and 12.4103 and 0.5526 and 38.1001 and 37.3361 and 35.7852 on hTA1 [3] (M = -5.522); 4.327 and 4.728 and 0.4991 and 15.3153 and 15.7258 and 16.125 on hTA1 [3] (M = -6); 2.1854 and 0.9809 and 0.8203 and 4.949 and 4.904 and 5.611 on hTA1 [3] (M = -6.522); 0.4723 and 0.2314 and 1.222 and 2.349 and 1.654 and 2.0983 on hTA1 [3] (M = -7); -0.3039 and -0.5448 and 0.6329 and 0.4676 and 0.5018 and 0.5816 at hTA1 [3] (M = -7.522). Also, the “Normalized Luminescence Counts for WT hTA1” value at hTA1 [3] (M = -8) was 0.7132 and 0.4188 and 1.757 and 0.2053 and 0.05702 and 0.536; at hTA1 [3] (M = -8.522), -0.06302 and 0.9006 and 0.8738 and 0.593 and 0.5702 (2×); at hTA1 [3] (M = -9), 0.2582 and -0.1433 and 0.5258 and 0.3193 and 0.2737 and 0.3877; at hTA1 [3] (M = -9.522), 0.2582 and -0.4913 and 0.7132 and 0.3877 and 0.2851 and 0.2965; at hTA1 [3] (M = -10), -0.06302 and -0.4378 and 0.6865 and 0.4904 and 0.2737 and 0.2851; on hTA1 [3] (M = -10.522), -0.5448 and -0.8928 and 1.141 and 0.1825 and 0.2281 and -0.06842. Also, the “Normalized Luminescence Counts for WT hTA1” value at hTA1 [3] (M = -11) was 0.1511 and -0.08979 and 0.7668 and -0.1368 and -0.1254 and -0.1482; at hTA1 [3] (M = -11.522), 0.9809 and -0.009489 and 0.6329 and 0.3991 and 0.3421 and 0.2167; at hTA1 [3] (M = -12), 0.6865 and 0.6329 and 1.195 and 0.1825 and 0.0114 and -0.07983; on hTA1 [3] (M = -12.522), 0.4455 and 0.4723 and 1.141 and 0.03421 and 0.0114 and -0.114. Further, the “increase of signal over DMSO-treated controls (hTA1 activation)” value (“increase of signal” for short) at hTA1 [4] is recorded as not below 4 fold.

Turning to `NCCc1ccc(O)c(O)c1` [dopamine], the “lowered potency by mutation” value in the assay on DRD4 S^5.43A is given as 7 fold.

For the compound `O=C1Nc2cc(Cl)c(Cl)cc2N2CCNCC12` (centres unmarked) [WAY161503], the “Normalized Luminescence Counts for WT hTA1” value was 13.2601 and 18.8261 and 16.7307 and 26.6058 and 24.591 and 22.5763 on hTA1 [3] (M = -5); 7.105 and 8.152 and 8.742 and 7.88 and 6.893 and 7.327 on hTA1 [3] (M = -5.522); 0.3926 and 0.6218 and 0.4581 and 2.389 and 1.639 and 1.7967 on hTA1 [3] (M = -6); -0.0003118 and -0.03305 and -0.426 and 0.5325 and 0.2955 and 0.6511 on hTA1 [3] (M = -6.522); -0.426 and -1.114 and -0.7861 and -0.2575 (2×) and -0.3366 at hTA1 [3] (M = -7); -0.8516 and -1.277 and -0.6879 and -0.3366 and -0.4946 and -1.166 on hTA1 [3] (M = -7.522). For the same compound, the “Normalized Luminescence Counts for WT hTA1” value was -0.09854 and -0.3605 (2×) and 0.09799 and 0.6511 and -0.3761 on hTA1 [3] (M = -8); -0.3605 and -0.7206 and -0.3932 and 1.165 and 1.046 and 0.6116 at hTA1 [3] (M = -8.522); -1.048 and -0.2622 and -0.8516 and -0.06003 and 0.2165 and 0.414 at hTA1 [3] (M = -9); -1.277 and -0.8516 and -0.7861 and 0.6116 and 0.01898 and -0.6526 on hTA1 [3] (M = -9.522); -0.7206 and -0.7534 and -0.3605 and -0.8106 and -0.1785 and -1.087 at hTA1 [3] (M = -10); -0.5897 and -0.09854 and -0.6224 and 0.01898 and -0.3761 and -0.7316 at hTA1 [3] (M = -10.522). Moreover, the “Normalized Luminescence Counts for WT hTA1” value on hTA1 [3] (M = -11) was 0.09791 and 0.03243 and -0.6224 and -0.2971 and 0.5325 and 0.3745; on hTA1 [3] (M = -11.522) it was -0.0003118 and -0.5242 and 0.06517 and -0.09953 and -0.4156 and 0.177; at hTA1 [3] (M = -12), -0.3277 and -0.295 and -0.8189 and 0.4535 and -0.2971 and -0.4156; at hTA1 [3] (M = -12.522) it was -0.3932 and -0.5897 (2×) and 0.4535 and -0.4551 and 0.09799. Moreover, at hTA1 [4], the “increase of signal” value is listed as not below 4 fold.

In the case of `CN1C[C@H](C(=O)N[C@]2(C)O[C@@]3(O)[C@@H]4CCCN4C(=O)[C@H](Cc4ccccc4)N3C2=O)C=C2c3cccc4[nH]cc(c34)C[C@H]21` [ergotamine], the “Normalized Luminescence Counts for WT hTA1” value on hTA1 [3] (M = -5) was 44.5775 and 42.7529 and 37.8036; at hTA1 [3] (M = -5.522) it was 33.1851 and 35.1808 and 34.0176; at hTA1 [3] (M = -6), 22.5339 and 18.3829 and 18.9303; at hTA1 [3] (M = -6.522) it was 13.3539 and 12.6012 and 11.6889; on hTA1 [3] (M = -7) it was 5.28 and 4.447 and 4.037; on hTA1 [3] (M = -7.522), 2.783 and 2.007 and 2.3948. Besides, the “Normalized Luminescence Counts for WT hTA1” value at hTA1 [3] (M = -8) was 1.311 and 0.7184 and 0.9351; on hTA1 [3] (M = -8.522), 1.095 and 0.9921 and 1.163; on hTA1 [3] (M = -9), 0.7184 and 0.3649 and 0.5816; at hTA1 [3] (M = -9.522), 0.2737 and 0.2167 and 0.1254; on hTA1 [3] (M = -10), 0.1482 and 0.4219 and 0.2395; on hTA1 [3] (M = -10.522), 0.1825 and 0.5018 and 0.1939. For the same compound, the “Normalized Luminescence Counts for WT hTA1” value on hTA1 [3] (M = -11) is 0.114 and 0.536 and 0.4333; at hTA1 [3] (M = -11.522), 0.6956 and 0.3649 and 0.8895; on hTA1 [3] (M = -12) it was 0.479 and 0.6728 and 0.4562; at hTA1 [3] (M = -12.522), 0.3991 and 0.593 and 0.5018. Also, the “increase of signal” value on hTA1 [4] is given as not below 4 fold.

With `c1ccc2nc(N3CCNCC3)ccc2c1` [quipazine], the “Normalized Luminescence Counts for WT hTA1” value on hTA1 [3] (M = -5) was 4.714 and 4.976 and 5.959; on hTA1 [3] (M = -5.522), 3.012 and 2.619 and 2.979; on hTA1 [3] (M = -6), 0.6873 and 0.2616 and 0.2944; at hTA1 [3] (M = -6.522), 0.06517 and 0.4908 and -0.09854; on hTA1 [3] (M = -7), 0.03243 and 0.2289 and -0.5569; on hTA1 [3] (M = -7.522), -0.0003118 and -0.1313 and -0.0658. Besides, the “Normalized Luminescence Counts for WT hTA1” value on hTA1 [3] (M = -8) is 0.2944 and -0.3605 and 0.3598; at hTA1 [3] (M = -8.522) it was -0.1968 and 0.4581 and 0.1307; at hTA1 [3] (M = -9), -0.2295 and -0.4587 and -0.5242; at hTA1 [3] (M = -9.522) it was -0.3277 and -0.3605 and -0.6224; on hTA1 [3] (M = -10), -0.164 and -0.2622 and 0.3926; on hTA1 [3] (M = -10.522), 0.3271 and -1.0153 and 0.3926. Also, the “Normalized Luminescence Counts for WT hTA1” value was 0.3598 and 0.06517 and 0.6218 on hTA1 [3] (M = -11); 0.4581 and -0.3277 and -0.1968 on hTA1 [3] (M = -11.522); -0.164 and 0.06517 and -0.09854 on hTA1 [3] (M = -12); 0.589 and 1.473 and 0.2944 at hTA1 [3] (M = -12.522). The “increase of signal” value at hTA1 [4] was not below 4 fold.

In the case of `CNC[C@H](O)c1ccc(O)c(O)c1` [epinephrine], the “Normalized Luminescence Counts for WT hTA1” value on hTA1 [3] (M = -5) is -0.5341 and -0.7316 and 0.493; at hTA1 [3] (M = -5.522) it was -0.1785 and 2.231 and -0.218; at hTA1 [3] (M = -6) it was 0.4535 and -0.139; at hTA1 [3] (M = -6.522), 0.493 and 1.046 and -0.7316; on hTA1 [3] (M = -7), -1.759 and -1.996 and -0.9686; at hTA1 [3] (M = -7.522), -2.549 and -2.2723 and -2.114. Besides, the “Normalized Luminescence Counts for WT hTA1” value on hTA1 [3] (M = -8) is -2.035 and -0.8106 and -2.154; on hTA1 [3] (M = -8.522), -1.917 and -1.68 and -2.233; at hTA1 [3] (M = -9), -2.391 and -2.075 and -2.628; on hTA1 [3] (M = -9.522) it was -2.588 and -2.667 and -2.549; at hTA1 [3] (M = -10), -2.865 and -2.47 and -2.391; on hTA1 [3] (M = -10.522), -2.628 and -2.193 and -2.549. The “Normalized Luminescence Counts for WT hTA1” value at hTA1 [3] (M = -11) was -2.3118 and -2.193 and -2.114; at hTA1 [3] (M = -11.522) it was -2.391 and -1.4427 and -1.956; at hTA1 [3] (M = -12), -2.233 and -1.4427 and -1.917; on hTA1 [3] (M = -12.522) it was -2.075 and -2.114 and -1.798. For the same compound, the “increase of signal” value on hTA1 [4] was not below 4 fold.

`NCCc1c[nH]c2ccccc12` [tryptamine]: the “higher potency at rTA1 compared to hTA1” value with rTA1 (rTA1 vs hTA1) is “over 50 fold”.

With `CCOc1cccc(NC(=O)c2ccc(N3CCCC3)c(C(F)(F)F)c2)c1` [EPPTB], the “binding to hTA1” value on hTA1 [5] is recorded as “does not appear to bind hTA1”. The Ki on mTA1 [6] was approximately 1 nM.

One may read the IC50 as the concentration at which inhibition is half-maximal.
